These results are taken from patent US9751857B2, “Hepatitis B antiviral agents” (NOVIRA THERAPEUTICS, INC., priority 2011, dated 2017).

In assay [1] the target is HBV C150Bo capsid protein (HBV CA protein) (Hepatitis B virus genotype D subtype adw, UniProt P03147, C107A/C48A/C61A/R150C). The assay is described as follows: HBV assembly assay (fluorescence quenching in vitro assembly). Format: biochemical. The conditions noted are these: at 10 μM.
Assay [2] relates to HBV replication in HepG2-2.2.15 cells. The assay is described as follows: Dot-blot assay of HBV replication. Format: cell-based. The conditions noted are these: Hepatitis B virus, 144 h. As to the method:
Compounds active in the HBV assembly assay are tested for their activity and toxicity in cellular assay. In the first anti-viral assay, the ability of compounds to inhibit HBV replication in an HBV-producing hepatoma cell line using the dot-blot method is evaluated.
Briefly, confluent monolayers of HepG2-2.2.15 cells are incubated with complete medium containing various concentrations of a test compound. Three days later, the culture medium is replaced with fresh medium containing the appropriately diluted test compound. Six days following the initial administration of the test compound, the cell culture supernatant is collected, and cell lysis is performed. The samples are applied onto Nylos membranes and DNA is immobilized to the membrane by UV cross-linking. After pre-hybridization, the HBV probe is added and the hybridization is performed overnight. The membranes are exposed to the Kodak films; antiviral activity is calculated from the reduction in HBV DNA levels (EC50). The EC50 for antiviral activity is calculated from the dose response curves of active compounds.
In the first anti-viral assay, the ability of compounds to inhibit HBV replication in an HBV-producing hepatoma cell line using the dot-blot method was evaluated.
Confluent monolayers of HepG2-2.2.15 cells were incubated with complete medium containing various concentrations of a test compound. Three days later, the culture medium was replaced with fresh medium containing the appropriately diluted test compound. Six days following the initial administration of the test compound, the cell culture supernatant was collected, and cell lysis was performed. The samples were applied onto Nylos membranes and DNA was immobilized to the membrane by UV cross-linking. After pre-hybridization, the HBV probe was added and the hybridization was performed overnight. The membranes were exposed to the Kodak films; antiviral activity was calculated from the reduction in HBV DNA levels (EC50). The EC50 for antiviral activity was calculated from the dose response curves of active compounds. […]

HBV C150Bo capsid protein (HBV CA protein), sequence (P03147 1-150 C48A/C61A/C107A/R150C): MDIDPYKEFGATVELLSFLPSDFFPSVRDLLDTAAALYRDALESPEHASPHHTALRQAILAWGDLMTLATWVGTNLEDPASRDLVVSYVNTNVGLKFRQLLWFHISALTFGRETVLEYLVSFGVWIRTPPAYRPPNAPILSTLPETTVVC

`O=C(Nc1cc(F)c(F)c(F)c1)c1ccc(CO)c(S(=O)(=O)N2CCC(O)CC2)c1` [compound 1420]: in assay [1], the “Activity in HBV assembly assay” value is on record as “+ (‘+’ indicates >50% activity at 10 μM)”. This molecule showed an inhibition at 10 µM in assay [2] above 50%.
For `O=C(Nc1ccc(F)c(Br)c1)c1cccc(S(=O)(=O)NC2CCCC2O)c1` (stereo not drawn) [compound 843], the “Activity in HBV assembly assay” value in assay [1] is recorded as “+ (‘+’ indicates >50% activity at 10 μM)”. In assay [2], this molecule returned an inhibition at 10 µM above 50%.
On the same counts, the results for `O=C(Nc1cc(F)c(F)c(F)c1)c1ccc(F)c(S(=O)(=O)N2CCC(O)C(F)C2)c1` (single isomer, unassigned) [960D1] are “+ (‘+’ indicates >50% activity at 10 μM)” and above 50%.
On the same counts, the results for `O=C(Nc1ccc(F)c(Cl)c1)c1cccc(S(=O)(=O)N2CCC(CO)(Cc3ccccc3)CC2)c1` [compound 553] are “+ (‘+’ indicates >50% activity at 10 μM)” and above 50%.
As to `O=C(Nc1cc(F)c(F)c(F)c1)c1cccc(S(=O)(=O)N2CCC(CO)CC2)c1` [compound 258], the “Activity in HBV assembly assay” value in assay [1] is “+ (‘+’ indicates >50% activity at 10 μM)”. The inhibition at 10 µM in assay [2] is above 50%.
For `O=C(Nc1cc(F)c(F)c(Cl)c1)c1cccc(S(=O)(=O)N2CC(O)C2)c1` [compound 935], in that order: “+ (‘+’ indicates >50% activity at 10 μM)” and above 50%.
In the case of `CN(CCO)S(=O)(=O)c1cccc(C(=O)Nc2cccc(Br)c2)c1` [compound 079], the “Activity in HBV assembly assay” value in assay [1] is on record as “+ (‘+’ indicates >50% activity at 10 μM)”. Further, the inhibition at 10 µM in assay [2] was above 50%.
On the same counts, the results for `O=C(Nc1ccc(F)c(Cl)c1)c1cccc(S(=O)(=O)N2CCC(O)(CO)CC2)c1` [compound 501] are “+ (‘+’ indicates >50% activity at 10 μM)” and above 50%.
For `O=C(Nc1ccc(F)c(Br)c1)c1ccc(F)c(S(=O)(=O)NC2CCC(O)C2)c1` (stereo not drawn) [compound 959], in that order: “+ (‘+’ indicates >50% activity at 10 μM)” and above 50%.
In the case of `CN(CCO)S(=O)(=O)c1cccc(C(=O)Nc2ccc(F)cc2)c1` [compound 332], the “Activity in HBV assembly assay” value in assay [1] is “+ (‘+’ indicates >50% activity at 10 μM)”. This molecule gave an inhibition at 10 µM in assay [2] above 50%.
For `O=C(Nc1ccc(F)c(Cl)c1)c1ccc(F)c(S(=O)(=O)N2CCC(CCO)CC2)c1` [compound 914], in that order: “+ (‘+’ indicates >50% activity at 10 μM)” and above 50%.
`O=C(Nc1ccc(F)c(CF)c1)c1cccc(S(=O)(=O)N2CC(O)C2)c1` [compound 646]: in assay [1], the “Activity in HBV assembly assay” value was “+ (‘+’ indicates >50% activity at 10 μM)”. In addition, the inhibition at 10 µM in assay [2] is above 50%.
For `O=C(Nc1cc(F)c(F)c(F)c1)c1cc(S(=O)(=O)N2CCC(O)(CO)CC2)c(F)cc1Cl` [compound 1379], in that order: “+ (‘+’ indicates >50% activity at 10 μM)” and above 50%.
`Cc1cc(NC(=O)c2cccc(S(=O)(=O)N3CCC(C)(CO)CC3)c2)ccc1F` [compound 478]: the “Activity in HBV assembly assay” value in assay [1] is “+ (‘+’ indicates >50% activity at 10 μM)”. The molecule also yielded an inhibition at 10 µM in assay [2] above 50%.
Turning to `O=C(Nc1ccc(F)c(Cl)c1)c1cc(S(=O)(=O)N2CC(O)C(F)C2)c(F)cc1Cl` (stereo not drawn) [compound 1410], in assay [1], the “Activity in HBV assembly assay” value is reported as “+ (‘+’ indicates >50% activity at 10 μM)”. Also, the inhibition at 10 µM in assay [2] was above 50%.
Consider `O=C(Nc1ccc(F)c(F)c1)c1cc(S(=O)(=O)NC2CC(O)C2)c(F)cc1Cl` (stereo not drawn) [1378CT2], for which, in assay [1], the “Activity in HBV assembly assay” value is reported as “+ (‘+’ indicates >50% activity at 10 μM)”. This molecule also showed an inhibition at 10 µM in assay [2] above 50%.
For `CC(=O)N1CCN(S(=O)(=O)c2cccc(C(=O)Nc3cccc(Br)c3)c2)CC1` [compound 119], in that order: “+ (‘+’ indicates >50% activity at 10 μM)” and above 50%.
For `O=C(Nc1ccc(F)c(F)c1)c1cc(S(=O)(=O)N2CC(O)C(F)C2)c(F)cc1Cl` (stereo not drawn) [compound 1413], in that order: “+ (‘+’ indicates >50% activity at 10 μM)” and above 50%.
As for `O=C(Nc1cccc(Br)c1)c1cccc(S(=O)(=O)N2CCC(CO)CC2)c1` [compound 065], the “Activity in HBV assembly assay” value in assay [1] is on record as “+ (‘+’ indicates >50% activity at 10 μM)”. Besides, the inhibition at 10 µM in assay [2] is above 50%.
On the same counts, the results for `COC(=O)c1ccc(C(=O)Nc2cc(F)c(F)c(F)c2)cc1S(=O)(=O)N1CCC(O)CC1` [compound 927] are “+ (‘+’ indicates >50% activity at 10 μM)” and above 50%.
For `O=C(Nc1ccc(F)c(F)c1)c1cc(S(=O)(=O)N2CCC(O)CC2)c(F)cc1Cl` [compound 1338], in that order: “+ (‘+’ indicates >50% activity at 10 μM)” and above 50%.
Consider `N#Cc1cc(NC(=O)c2cccc(S(=O)(=O)N3CCC(O)CC3)c2)ccc1F` [compound 419], for which, in assay [1], the “Activity in HBV assembly assay” value was “+ (‘+’ indicates >50% activity at 10 μM)”. In assay [2], this molecule displayed an inhibition at 10 µM above 50%.
For `O=C(Nc1cc(F)c(F)c(F)c1)c1cc(S(=O)(=O)N2CC(O)C2)ccc1Cl` [compound 1153], in that order: “+ (‘+’ indicates >50% activity at 10 μM)” and above 50%.
On the same counts, the results for `O=C(Nc1cc(F)c(F)c(F)c1)c1cccc(S(=O)(=O)N2CCC(O)(c3ccc(F)cc3)CC2)c1` [compound 765] are “+ (‘+’ indicates >50% activity at 10 μM)” and above 50%.
For `O=C(Nc1cc(F)c(F)c(F)c1)c1ccc(F)c(S(=O)(=O)N2CC(O)C2)c1` [compound 901], in that order: “+ (‘+’ indicates >50% activity at 10 μM)” and above 50%.
Consider `O=C(Nc1cc(F)c(F)c(F)c1)c1cc(S(=O)(=O)NC2CC(O)C2)c(F)cc1Cl` (stereo not drawn) [1374CT1], for which the “Activity in HBV assembly assay” value in assay [1] is listed as “+ (‘+’ indicates >50% activity at 10 μM)”. The molecule also displayed an inhibition at 10 µM in assay [2] above 50%.
On the same counts, the results for `CC1CN(S(=O)(=O)c2cccc(C(=O)Nc3cc(F)c(F)c(F)c3)c2)CCC1CCO` (stereo not drawn) [743D1] are “+ (‘+’ indicates >50% activity at 10 μM)” and above 50%.
As for `O=C(Nc1ccc(F)c(C(F)F)c1)c1cccc(S(=O)(=O)N2CCCC2CO)c1` (stereo not drawn) [677R], the “Activity in HBV assembly assay” value in assay [1] was “+ (‘+’ indicates >50% activity at 10 μM)”. The inhibition at 10 µM in assay [2] is above 50%.
On the same counts, the results for `O=C(Nc1cc(F)c(F)c(F)c1)c1ccc(Cl)c(S(=O)(=O)N2CCC(O)(CO)CC2)c1` [compound 1130] are “+ (‘+’ indicates >50% activity at 10 μM)” and above 50%.
For `O=C(Nc1ccc(F)c(Cl)c1)c1cc(S(=O)(=O)NC2CCCC2O)ccc1Cl` (stereo not drawn) [compound 1114], in that order: “+ (‘+’ indicates >50% activity at 10 μM)” and above 50%.
For `O=C(Nc1ccc(F)c(Cl)c1)c1cccc(S(=O)(=O)N2CCC(O)C(CO)C2)c1` (stereo not drawn) [719D1], the “Activity in HBV assembly assay” value in assay [1] is “+ (‘+’ indicates >50% activity at 10 μM)”. Moreover, the inhibition at 10 µM in assay [2] was above 50%.
Regarding `O=C(Nc1ccc(F)c(Cl)c1)c1cccc(S(=O)(=O)N2CCC(O)C(Cc3ccccc3)C2)c1` (stereo not drawn) [713D2], in assay [1], the “Activity in HBV assembly assay” value is listed as “+ (‘+’ indicates >50% activity at 10 μM)”. The molecule also had an inhibition at 10 µM in assay [2] above 50%.
In the case of `O=C(Nc1ccc(F)c(Cl)c1)c1cccc(S(=O)(=O)N2CCC(O)(c3cccc(F)c3F)CC2)c1` [compound 775], in assay [1], the “Activity in HBV assembly assay” value is “+ (‘+’ indicates >50% activity at 10 μM)”. In addition, the inhibition at 10 µM in assay [2] was above 50%.
For `O=C(Nc1cccc(Br)c1)c1cccc(S(=O)(=O)N2CCN(C(=O)C3(O)CC3)CC2)c1` [compound 129], in that order: “+ (‘+’ indicates >50% activity at 10 μM)” and above 50%.
Take `O=C(Nc1ccc(F)c(Cl)c1)c1ccc(Cl)c(S(=O)(=O)N2CCCC2CO)c1` (stereo not drawn) [1094S]: in assay [1], the “Activity in HBV assembly assay” value was “+ (‘+’ indicates >50% activity at 10 μM)”. In addition, the inhibition at 10 µM in assay [2] was above 50%.
In the case of `O=C(Nc1cc(F)c(F)c(F)c1)c1cc(S(=O)(=O)NC2COCC2O)c(F)cc1Cl` (stereo not drawn) [compound 1404], the “Activity in HBV assembly assay” value in assay [1] is “+ (‘+’ indicates >50% activity at 10 μM)”. This molecule had an inhibition at 10 µM in assay [2] above 50%.
`O=C(Nc1ccc(F)c(Cl)c1)c1cccc(S(=O)(=O)N2CCCC2CO)c1` (stereo not drawn) [compound 208]: the “Activity in HBV assembly assay” value in assay [1] was “+ (‘+’ indicates >50% activity at 10 μM)”. The molecule further registered an inhibition at 10 µM in assay [2] above 50%.
On to `O=C(Nc1cc(F)c(F)c(F)c1)c1cc(S(=O)(=O)NC2CCCC2O)ccc1Cl` (stereo not drawn) [compound 1113], for which, in assay [1], the “Activity in HBV assembly assay” value is listed as “+ (‘+’ indicates >50% activity at 10 μM)”. The inhibition at 10 µM in assay [2] is above 50%.
On the same counts, the results for `O=C(Nc1cc(F)c(F)c(C(F)F)c1)c1cccc(S(=O)(=O)N2CCC(O)C(F)C2)c1` (stereo not drawn) [824D2] are “+ (‘+’ indicates >50% activity at 10 μM)” and above 50%.
